# Source: patent US20220233713A1, “SONODYNAMIC THERAPY” (priority 2019, published 2022)
# Where a name gives a salt, the structure may show the parent alone.
# Test system: BxPC-3 tumours
# Test: In vivo BxPC-3 xenograft model, tumour growth
# Design: species or system SCID mice
# Settings: 100 μL I.P. injection, Gem HCl 120 mg/kg (scaled clinical dose); FIG. 7
# Protocol: All animals in these studies were treated humanely and in accordance with licensed protocols under the Animals (Scientific Procedures) Act 1986 (UK). BxPc-3 cells were maintained in RPMI 1640 media supplemented with 100 U/mL penicillin, […] streptomycin, and 10% fetal bovine serum (FBS) in a humidified 5% CO2 atmosphere at 37° C. Cells (1×10^6) were re-suspended in Matrigel® and implanted subcutaneously into the rear dorsum of SCID (C.B-17/IcrHan@Hsd-Prkdcscid) mice. Tumours reached treatable size within 3 weeks. Tumour measurements were taken daily using callipers. Once the tumours had reached an average volume of 150 mm^3 animals were randomly assigned into treatment groups. Animals were anaesthetised using isoflurane with medical grade oxygen as the carrier gas. […] As control groups, animals were treated with a 100 μL I.P injection of either (i) gemcitabine hydrochloride (120 mg/kg) or (ii) gemcitabine hydrochloride (120 mg/kg) and PTX (15 mg/kg). Ultrasound was applied directly to the tumour immediately following injection at an ultrasound frequency of 1 MHz, an ultrasound power density of 3.5 W/cm^2 and a duty cycle of 30% for 3.5 min. Tumour volume was measured using callipers and calculated using the formula: V=L×W×H/2.
compound,measurement,value
"Nc1ccn([C@@H]2O[C@H](CO)[C@@H](O)C2(F)F)c(=O)n1 [Gem HCl, gemcitabine hydrochloride]",tumour growth control,significantly controls tumour growth progression
